Data reported in patent US9341616B2, “Sweet taste receptor chimeric proteins and use thereof” (AJINOMOTO CO., INC., priority 2014, dated 2016).
Residues, ends and D or L forms follow the SMILES beside them.

Biological target: h-mT1R2-471/T1R3mosaicA (UniProt Q8TE23+Q925D8, A12W/A31M/A537S/A558R/A564V/A568V/A570T/A588V/A645S/A649T/A658V/A698V/A702T/A782V/A793V/A807V/C582S/C678S/D480N/E16H/E530V/E534N/E542M/E548N/E725V/F14L/F29L/F525Y/F541I/F612A/F622V/F665L/F695L/G696N/G701T/H484Y/H528R/H728R/I36V/I481V/I486P/I490V/I510L/I518V/I595M/I60P/I617V/I643V/I645L/I692L/I695G/I706V/I740A/I803L/K30R/K476T/K504M/K555R/K565R/K626T/K714N/K818R/K827G/L17P/L471T/L521P/L560F/L571I/L578I/L610P/L631F/L636F/L639V/L684P/L688V/L702I/L734M/L735F/L800F/L823M/L825Q/M19T/M492I/M616G/M644L/M682V/M690V/M744T/M748V/N477Y/N52R/N540G/N541S/N547G/N58S/N63T/N675D/N721H/P545F/P561R/P564S/P61V/P638T/P824S/Q32K/Q472E/Q474R/Q479S/Q536L/Q53S/Q546K/Q550E/Q555R/Q56R/Q611L/Q676H/Q757R/Q795R/Q831P/R473T/R498S/R632Q/R667S/S22P/S45E/S501P/S547N/S550A/S576L/S595F/S610P/S628F/S635P/S637R/S663R/S670G/S679G/S681F/S703N/S717H/S727G/S784D/S804G/T46A/T50G/T529S/T542A/T549I/T609V/T629S/T642S/T663I/T694M/T705I/T706G/T716I/T813A/V508I/V512P/V557A/V573A/V584A/V585L/V613L/V617M/V673M/V687A/V691A/V694A/V718L/V718M/V723A/V729T/V738A/V741L/V774I/V791M/V805L/V812A/V821L/W599R/W676R/W824R/Y533F/Y615F/Y671F/Y680C/Y769S/Y783H/Y794L)
Sequence (Q8TE23 with tags, fused parts or gaps with the stated changes limits assumed): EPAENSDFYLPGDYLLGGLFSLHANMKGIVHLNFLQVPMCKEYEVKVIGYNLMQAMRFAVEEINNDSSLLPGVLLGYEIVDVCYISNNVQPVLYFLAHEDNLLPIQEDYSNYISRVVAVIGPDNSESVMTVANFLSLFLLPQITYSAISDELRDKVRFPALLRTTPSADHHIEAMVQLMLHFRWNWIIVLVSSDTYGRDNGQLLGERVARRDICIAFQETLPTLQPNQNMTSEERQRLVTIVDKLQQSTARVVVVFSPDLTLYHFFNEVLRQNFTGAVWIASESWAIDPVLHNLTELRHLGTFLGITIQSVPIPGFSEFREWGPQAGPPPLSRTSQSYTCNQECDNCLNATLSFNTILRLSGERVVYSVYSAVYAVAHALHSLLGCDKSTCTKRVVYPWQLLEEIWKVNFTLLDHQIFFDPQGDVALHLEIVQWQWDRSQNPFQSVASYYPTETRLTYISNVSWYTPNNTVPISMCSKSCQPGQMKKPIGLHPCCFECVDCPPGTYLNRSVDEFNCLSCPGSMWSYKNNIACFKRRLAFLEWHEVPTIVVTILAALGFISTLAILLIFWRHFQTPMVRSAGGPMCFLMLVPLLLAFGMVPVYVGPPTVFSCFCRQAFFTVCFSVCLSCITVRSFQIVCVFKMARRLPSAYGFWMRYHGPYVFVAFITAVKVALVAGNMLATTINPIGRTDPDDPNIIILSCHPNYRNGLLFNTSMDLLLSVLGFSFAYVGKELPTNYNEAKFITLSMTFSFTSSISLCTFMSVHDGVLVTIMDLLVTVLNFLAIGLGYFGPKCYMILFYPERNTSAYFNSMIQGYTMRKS
Sequence (Q925D8 with tags, fused parts or gaps with the stated changes limits assumed): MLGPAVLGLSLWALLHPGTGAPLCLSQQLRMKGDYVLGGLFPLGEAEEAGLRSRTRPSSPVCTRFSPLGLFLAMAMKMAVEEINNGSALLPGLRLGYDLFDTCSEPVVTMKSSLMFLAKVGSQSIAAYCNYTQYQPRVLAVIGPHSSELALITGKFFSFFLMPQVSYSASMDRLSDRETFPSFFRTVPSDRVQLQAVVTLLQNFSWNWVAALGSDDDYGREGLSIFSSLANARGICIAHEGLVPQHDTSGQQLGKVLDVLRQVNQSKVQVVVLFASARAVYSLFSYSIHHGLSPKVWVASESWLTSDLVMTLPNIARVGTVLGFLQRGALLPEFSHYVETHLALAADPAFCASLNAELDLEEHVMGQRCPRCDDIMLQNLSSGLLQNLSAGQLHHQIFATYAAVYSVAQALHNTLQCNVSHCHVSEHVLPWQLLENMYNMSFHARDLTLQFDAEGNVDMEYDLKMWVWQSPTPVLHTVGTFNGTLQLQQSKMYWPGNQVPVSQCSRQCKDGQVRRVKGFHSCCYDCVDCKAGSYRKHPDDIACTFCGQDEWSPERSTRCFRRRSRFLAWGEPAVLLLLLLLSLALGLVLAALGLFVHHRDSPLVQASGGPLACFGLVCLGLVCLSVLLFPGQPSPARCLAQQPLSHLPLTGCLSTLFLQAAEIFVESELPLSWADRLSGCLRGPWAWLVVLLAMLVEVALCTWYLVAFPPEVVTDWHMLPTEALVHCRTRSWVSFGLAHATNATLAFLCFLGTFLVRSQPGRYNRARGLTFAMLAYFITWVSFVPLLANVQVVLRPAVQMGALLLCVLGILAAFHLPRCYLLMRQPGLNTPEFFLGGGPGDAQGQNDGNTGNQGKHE
Settings: Table 4; genes h-mT471/T3mA (h-mT1R2-471, T1R3mA); HEK293E cells

SMILES	S/N
CC1=CC(=O)NS(=O)(=O)O1 [Acesulfame K, acesulfame potassium]	4.3
COC(=O)[C@H](Cc1ccccc1)NC(=O)[C@H](CC(=O)O)NCCCc1ccc(OC)c(O)c1 [Advantame, advantame]	10.0
COC(=O)[C@H](Cc1ccccc1)NC(=O)[C@@H](N)CC(=O)O [Aspartame, aspartame] (HELM PEPTIDE1{D.F.[CO[*:1]]}$$$$V2.0)	7.9
COC(=O)[C@H](Cc1ccccc1)NC(=O)[C@H](CC(=O)O)NCCC(C)(C)C [Neotame, neotame]	8.3
C[C@H](NC(=Nc1ccc(C#N)cc1)NCC(=O)O)c1ccccc1 [SC-45647, [3-[(S)-1-phenylethyl]-2-(4-cyanophenyl)guanidino]acetic acid]	6.5
O=C1NS(=O)(=O)c2ccccc21.[Na] [Saccharin Na, sodium saccharin]	3.9
OC[C@H]1O[C@H](O[C@]2(CCl)O[C@H](CCl)[C@@H](O)[C@@H]2O)[C@H](O)[C@@H](O)[C@H]1Cl [Sucralose, sucralose]	7.1
OC[C@H]1O[C@@](CO)(O[C@H]2O[C@H](CO)[C@@H](O)[C@H](O)[C@H]2O)[C@@H](O)[C@@H]1O [Sucrose, sucrose]	3.5
